Test results published in patent US8722896B2, “Prokineticin receptor antagonists and uses thereof” (The Regents of the University of California, priority 2008, dated 2014).

B1: PK2: "Mature human prokineticins (PK1 and PK2) contain 86 and 81 amino acids, respectively"; "recombinant PK2" used as agonist (protein, UniProt Q9HC23 28-129, looked up)
Prokineticin-2: AVITGACDKDSQCGGGMCCAVSIWVKSIRICTPMGKLGDSCHPLTRKNNFGNGRQERRKRKRSKRKKEVPFFGRRMHHTCPCLPGLACLRTSFNRFICLAQK

Legend:
[1] = GTT in mice fed high-fat diet (diet-induced hyperglycemia); assay type: in vivo; details: 40 mg/kg body weight, mice on high fat diet 8 weeks (FIG. 2)
Experimental: (§1) The compound (3R)-1-Benzyl-N-(9-chloro-3,4-dihydro-2H-1,5-benzodioxepin-7-ylmethyl)-N-isobutyl pyrrolidine-3-carboxamide (3Cl-R-PLP) was dissolved in PEG-400 and then resuspended in water with 8% final concentration of PEG-400.8% PEG-400 in water without drug was used as vehicle. Mice were fed with regular chow. Drug or vehicle was gavaged to mice that were fasted overnight. Two hours later, glucose (2 g/kg of body weight) was injected i.p. and whole venous blood obtained from the tail vein at 0, 15, 30, 90 and 120 min after the injection was measured for glucose by using an automatic glucometer (one Touch, Lifescan, Daly, Calif.).
High fat diet was fed to mice for 8 weeks to induced diet-induced hyperglycemia. GTT test was carried out as described earlier.

[2] = Chronic treatment in db/db mice, glucose levels; assay type: in vivo; details: 0.1 mg/mL in drinking water, 2 weeks, 10-week old db/db mice, fed and fasting conditions (FIG. 4)
Experimental: Db/db mice are commonly used as genetic models of type II diabetes. 10-week old db/db mice were treated with 3Cl-R-PLP (0.1 mg/mL in drinking water) or vehicle for 2 weeks.

[3] = Chronic treatment in diet-induced diabetes model, circulating glucose; assay type: in vivo, mice; details: 0.1 and 0.01 mg/ml in drinking water for two weeks; measured 3, 7 and 14 days; high-fat diet 8 weeks (FIG. 3)
Experimental: Diet-induced diabetes models were created by feeding with high-fat diet for 8 weeks. These mice developed glucose intolerance and hyperglycemia. 3Cl-R-PLP was dissolved in drinking water and given to mice for two weeks. Circulating glucose levels were measured 3, 7 and 14 days after 3Cl-R-PLP treatment.

[4] = Glucose tolerance test (GTT), mice fed regular chow; assay type: in vivo
Experimental: as §1

MIN6 cells [5] = experiment: Cytosolic calcium mobilization in MIN6 cells; assay type: cell-based
Text: (§2) To investigate the direct effects of PK2 on the insulin secretion, the inventors performed a glucose-stimulated insulin secretion on β-cell like MIN6 cells. […] To specifically test the effects of endogenous PK2, the inventors treated MIN6 cells with 4Ind-3Cl-R-BMA along with low and high concentrations of glucose. […] As PK2 receptors have been reported coupling to Gi or Gq proteins, the inventors examined the possible signaling transduction of PK2 receptor in MIN6 cells.

[6] = Glucose-induced insulin secretion in vivo after PK2 administration; design: species or system mice; details: glucose i.p., 30 min (FIG. 10)
Text: To understand whether insulin is directly involved, the inventors examined whether PK2 and/or its two cognate receptors, PKR1 and PKR2, are expressed in pancreas beta cells. […] The inventors tested whether this glucose-induced insulin secretion was inhibited by PK2. […] Consistent with the inhibitory effect of PK2 on insulin secretion, PK2-deficient mice have increased circulating insulin level. It is likely that at least some of glucose-lowering effects of PK2 antagonists were due to their abilities to increase insulin secretion as depicted in FIG. 11.

MIN6 cells [7] = experiment: Forskolin-induced cAMP levels in MIN6 cells; assay type: cell-based; details: PK2 (FIG. 12C)
Text: as §2

MIN6 cells [8] = experiment: Glucose-stimulated insulin secretion in MIN6 cells; assay type: cell-based; details: 15 mM glucose, PK2 added (FIG. 12A)
Text: as §2

[9] = PK2 administration in GTT, wild type mice; assay type: in vivo; details: 10 nmol/kg and 200 nmol/kg, wild type mice (FIG. 8)
Experimental: as §1
The inventors next tested the effect of PK2 administration on the performance of GTT test in wild type mice. […] This is consistent with observations that PK2-deficient mice have enhanced glucose clearance abilities.

Molecule | glucose clearance in GTT [1] | glucose levels [2] | circulating glucose levels [3] | dose dependence of performance in GTT ([4]; 0, 1, 4, 12 and 40 mg/kg of body weight (FIG. 1B)) | glucose clearance in GTT ([4]; 4 mg/kg of body weight, gavage 2 h before glucose 2 g/kg i.p., fasted mice, regular chow (FIG. 1A)) | cytosolic calcium mobilization (MIN6 cells [5]) | glucose-induced elevation of circulating insulin [6] | forskolin-induced cAMP levels (MIN6 cells [7]) | insulin secretion induced by glucose (MIN6 cells [8]) | rate of glucose clearance in GTT [9]
CC(C)CN(Cc1cc(Cl)c2c(c1)OCCCO2)C(=O)[C@@H]1CCN(Cc2ccccc2)C1 [Example 15, (3R)-1-Benzyl-N-(9-chloro-3,4-dihydro-2H-1,5-benzodioxepin-7-ylmethyl)-N-isobutyl pyrrolidine-3-carboxamide] | significantly improved glucose clearance | significantly decreased glucose levels | effectively decreased the glucose levels | dose-dependent effect | improved glucose clearance significantly |  |  |  |  | 
B1 |  |  |  |  |  | didn't elicit cytosolic calcium mobilization | significantly inhibited glucose-induced elevation of insulin in circulation | significantly inhibited forskolin-induced cAMP levels | significantly suppressed the insulin secretion | significantly reduced the rate of glucose clearance
